In publication PMC10636063, “Progesterone activation of β1-containing BK channels involves two binding sites” (Nature Communications, 2023):
Where “and” joins values, the source holds several entries; their conditions need not be identical. Identical values can stand only once.

What was measured:
cbv1+β1Y32V = biological target: T1, cbv1+β1Y32V (Rattus norvegicus, UniProt P97678, Y32V); test: Channel activity (NPo) in POPE/POPS bilayers, cbv1+β1Y32V; format: biochemical; settings: for normalized NPo, time course Fig 2E: Y32V PROG
T1 construct: made in house; host or cells: CHO cells, transient transfection; sucrose-gradient membrane preparation
Excerpt: (§1) BK channel-forming slo1 cDNA (cbv1 isoform; AY330293) was cloned from rat cerebral artery SM cells, and inserted into pcDNA3.1 vector as described. BK β1 cDNA (KCNMB1 product; NP_011452; FJ154955) were isolated from rat cerebral artery SM cells and cloned as described. β4 cDNA (KCNMB4; NP_055320; AY028605) were generously provided by Dr. Ligia Toro. CHO cells were transiently transfected with cbv1 ± β1-, or β4-carrying pcDNA3.1 using X-tremeGENE HP (Sigma-Aldrich). Mutations to β1/4 cDNAs were conducted by Genscript, with sequences being confirmed to be >99% identical to KCNMB1 product; NP_011452 or β4 KCNMB4; NP_055320; respectively. β1/4 and mutant constructs were flag-tagged (DYKDDDDK-tag) by Genscript services for subsequent immunoprecipitation and use in microscale thermophoresis studies.
(§2) Proteins for electrophysiological recordings in artificial lipid bilayers remained untagged. Cells were transiently transfected as described above, pelleted and re-suspended on ice in 10 ml of buffer solution of the following composition (mM): 30 KCl, 2 MgCl2, 10 HEPES, 5 EGTA; pH 7.2. A membrane preparation was obtained using a sucrose gradient as described. Aliquots were stored at −80 °C. BK channel-mediated ionic current was recorded in planar lipid bilayers consisting of a POPE:POPS 3:1 (w/w) mixture. Lipid mixtures were dried under N2 and re-suspended in 25 mg/ml of n-decane BK currents following incorporation into horizontal bilayers at 300/30 mM cis/trans gradient as detailed elsewhere. Ion currents were obtained during a 10-min gap-free recording at 0 mV in the presence of 0.01, 10 μM PROG, 10 μM PROG-oxime, or vehicle control (dimethyl sulfoxide; DMSO). Currents were obtained in gap-free mode using a Warner BC-525D amplifier, low pass-filtered at 1 kHz and sampled at 5 kHz with Digidata 1550B/pCLAMP 11 (Molecular Devices). For comparison with previous data from us[16],[17],[45]–[47], studies were conducted at 20–22 °C. PROG stock, oxime stock or vehicle control (DMSO) was added to the bilayer cis chamber to reach final concentrations (0.01–10 µM), with all compounds being dissolved with the same concentration of DMSO (0.1%); n = 5–10 for each group.
(§3) Patch-clamp and bilayer data were analyzed using Clampfit 10.7 software (Molecular Devices). NPo was used as an index of channel steady-state activity where N = number of channels in the patch (defined as a maximal number of opening levels at Po≤1) and Po=single channel open probability. Drug-induced NPo changes were determined by comparing baseline NPo (i.e., NPo with the patch/cell perfused with bath solution) to the NPo from the same patch/cell exposed to the agent under study (DMSO/PROG/oxime) dissolved in bath solution. NPo and mean open time values were automatically calculated using Clampfit 10.7, the latter using a 50% threshold detection event.

cbv1+β1W87F = biological target: T2, cbv1+β1W87F (Rattus norvegicus, UniProt P97678, W87F); test: Channel activity (NPo) in POPE/POPS bilayers, cbv1+β1W87F; format: biochemical
T2 construct: made in house; host or cells: CHO cells, transient transfection; sucrose-gradient membrane preparation
Excerpt: BK channel-forming slo1 cDNA (cbv1 isoform; AY330293) was cloned from rat cerebral artery SM cells, and inserted into pcDNA3.1 vector as described. BK β1 cDNA (KCNMB1 product; NP_011452; FJ154955) were isolated from rat cerebral artery SM cells and cloned as described. β4 cDNA (KCNMB4; NP_055320; AY028605) were generously provided by Dr. Ligia Toro. CHO cells were transiently transfected with cbv1 ± β1-, or β4-carrying pcDNA3.1 using X-tremeGENE HP (Sigma-Aldrich). […]
Proteins for electrophysiological recordings in artificial lipid bilayers remained untagged. […] BK channel-mediated ionic current was recorded in planar lipid bilayers consisting of a POPE:POPS 3:1 (w/w) mixture. […]
as §3, with “NPo was used as an index of channel steady-state activity where N = number of channels in the patch (defined as a maximal number of opening levels at Po≤1) and Po=single channel open probability.” left out

β1Y32F = biological target: T3, β1Y32F (Rattus norvegicus, UniProt P97678, Y32F); test: Thermal unfolding (MST) of β1Y32F; format: binding
T3 construct: FLAG (DYKDDDDK); made in house; host or cells: CHO cells, transient transfection, anti-flag immunoprecipitation
Excerpt: as §1
(§4) Wt β1, wt β4 and mutant constructs were purified by immunoprecipitation using Dynabeads Protein G Kit (10007D by Invitrogen) and following the manufacturer’s instructions. […] The unfolding profile of a protein is a plot of its fluorescence signal against temperature. […] During the heating process, fluorescence is recorded at 330 and 350 nm. The resulting fluorescence ratio change is then analyzed for onset and inflection points. The temperature of onset and inflection is determined using built-in analysis function in Nanotemper PR.therm-control software. […]

[1] = tested on: β1-β4 chimera (loop of β4 with β1 TMs); test: Thermal unfolding (MST) of β1-β4 chimera; format: binding; settings: 0.004 μM
Excerpt: as §1, §4

β1Y42V = biological target: T4, β1Y42V (Rattus norvegicus, UniProt P97678, Y42V); test: Thermal unfolding (MST) of β1Y42V; format: binding
T4 construct: FLAG (DYKDDDDK); made in house; host or cells: CHO cells, transient transfection, anti-flag immunoprecipitation
Excerpt: as §1, §4

[2] = biological target: T5, slo1 (cbv1) homotetramers (Rattus norvegicus, UniProt Q62976); test: Channel activity (NPo) in POPE/POPS bilayers, cbv1 homomers; format: biochemical
T5 construct: made in house; host or cells: CHO cells, transient transfection; sucrose-gradient membrane preparation
Excerpt: as §1, §2, §3

T5 sequence (Q62976 1-1148 isoform Q62976-2): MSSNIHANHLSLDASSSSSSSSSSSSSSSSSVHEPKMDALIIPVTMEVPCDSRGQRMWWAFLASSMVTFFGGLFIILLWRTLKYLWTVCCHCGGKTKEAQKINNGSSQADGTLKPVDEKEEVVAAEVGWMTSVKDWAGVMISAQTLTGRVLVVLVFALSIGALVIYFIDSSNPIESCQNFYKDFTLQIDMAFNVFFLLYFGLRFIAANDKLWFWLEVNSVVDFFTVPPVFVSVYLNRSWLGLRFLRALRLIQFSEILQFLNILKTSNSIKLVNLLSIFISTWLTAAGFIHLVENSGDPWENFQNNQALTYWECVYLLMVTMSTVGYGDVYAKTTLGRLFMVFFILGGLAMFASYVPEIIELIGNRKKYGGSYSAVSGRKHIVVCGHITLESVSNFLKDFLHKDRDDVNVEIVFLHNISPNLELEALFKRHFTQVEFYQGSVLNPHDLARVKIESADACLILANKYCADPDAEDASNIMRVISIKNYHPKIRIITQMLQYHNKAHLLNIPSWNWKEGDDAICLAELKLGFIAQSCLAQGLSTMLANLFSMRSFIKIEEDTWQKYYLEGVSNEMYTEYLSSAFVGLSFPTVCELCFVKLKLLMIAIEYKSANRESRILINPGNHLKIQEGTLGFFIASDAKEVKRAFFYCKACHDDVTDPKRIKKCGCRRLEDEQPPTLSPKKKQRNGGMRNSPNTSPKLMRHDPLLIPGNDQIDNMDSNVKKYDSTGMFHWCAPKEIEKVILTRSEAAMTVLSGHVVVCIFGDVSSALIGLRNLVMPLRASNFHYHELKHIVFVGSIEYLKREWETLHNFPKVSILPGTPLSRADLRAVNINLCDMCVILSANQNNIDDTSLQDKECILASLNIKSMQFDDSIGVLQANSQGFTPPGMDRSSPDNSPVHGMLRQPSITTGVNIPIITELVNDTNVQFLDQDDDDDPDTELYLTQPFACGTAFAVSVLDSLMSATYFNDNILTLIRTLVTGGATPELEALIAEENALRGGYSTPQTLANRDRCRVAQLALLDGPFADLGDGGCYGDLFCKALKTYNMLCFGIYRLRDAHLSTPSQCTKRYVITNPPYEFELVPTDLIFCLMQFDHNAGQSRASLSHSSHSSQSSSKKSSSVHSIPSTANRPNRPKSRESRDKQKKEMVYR
T1 sequence (P97678 whole entry Y32V): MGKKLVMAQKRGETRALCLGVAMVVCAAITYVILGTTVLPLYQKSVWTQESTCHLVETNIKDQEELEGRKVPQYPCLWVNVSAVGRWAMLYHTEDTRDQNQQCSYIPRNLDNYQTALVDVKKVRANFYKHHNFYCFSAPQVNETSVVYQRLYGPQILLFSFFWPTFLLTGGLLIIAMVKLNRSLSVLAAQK
T1 sequence (Q62976 1-1148 isoform Q62976-2 partner): as the sequence (Q62976 1-1148 isoform Q62976-2) above
T2 sequence (P97678 whole entry W87F): as the sequence (P97678 whole entry Y32V) above, with V32Y, W87F counted along it
T2 sequence (Q62976 1-1148 isoform Q62976-2 partner): as the sequence (Q62976 1-1148 isoform Q62976-2) above
T3 sequence (P97678 whole entry Y32F): as the sequence (P97678 whole entry Y32V) above, with V32F counted along it
T4 sequence (P97678 whole entry Y42V): as the sequence (P97678 whole entry Y32V) above, with V32Y, Y42V counted along it

For `CC(=O)[C@H]1CC[C@H]2[C@@H]3CCC4=CC(=O)CC[C@]4(C)[C@H]3CC[C@]12C` [PROG, Progesterone], the “action on channel activity (NPo)” value (cbv1+β1Y32V; 10 µM, vs DMSO) was “effectively abolished PROG action”, the “normalized NPo, time course Fig 2E” value (cbv1+β1Y32V; time 1 min (normalisation reference)) was 1 and the “normalized NPo, time course Fig 2E” value (cbv1+β1Y32V; time 3 min) was 1.125 and 0.8919 and 0.9083 and 0.945 and 0.929. For the same compound, the “normalized NPo, time course Fig 2E” value (cbv1+β1Y32V; time 5 min) was 0.9853 and 0.9339 and 0.8202 and 0.8981 and 0.6799, the “normalized NPo, time course Fig 2E” value (cbv1+β1Y32V; time 6 min) was 1.106 and 1.228 and 1.117 and 1.276 and 0.8487 and the “normalized NPo, time course Fig 2E” value (cbv1+β1Y32V; time 7 min) was 1.144 and 0.9028 and 1.206 and 0.9453. The “normalized NPo, time course Fig 2E” value (cbv1+β1Y32V; time 8 min) was 0.6757 and 1.202 and 0.918 and 1.1397, the “normalized NPo, time course Fig 2E” value (cbv1+β1Y32V; time 9 min) was 0.5676 and 0.9266 and 0.822 and 1.088 and the “normalized NPo, time course Fig 2E” value (cbv1+β1Y32V; time 10 min) was 0.7195 and 0.8661 and 0.9555 and 1.102. The “action on channel activity (NPo)” value (cbv1+β1W87F; 10 µM, vs vehicle) was “effectively abolished PROG action”, the “normalized NPo, time course Fig 4E” value (cbv1+β1W87F; cbv1+w87F prog, time 1 min (normalisation reference)) was 1 and the binding (β1Y32F) was “still bind PROG”. For the same compound, the “effect on thermal unfolding / binding” value [1] was “still bound and destabilized the protein structure”, the binding (β1Y42V) was “still bind PROG” and the NPo/NPobasal ([2]; 10 µM PROG, min 2, single records) was 1.014 and 0.7178 and 0.9853 and 1 and 0.9322. For the same compound, the NPo/NPobasal ([2]; 10 µM PROG, min 4, single records) was 1.047 and 1.067 and 1.015 and 1.069 and 1.029, the NPo/NPobasal ([2]; 10 µM PROG, min 5, single records) was 1.023 and 1.182 and 1.11 and 1.053 and 1.066 and the NPo/NPobasal ([2]; 10 µM PROG, min 6, single records) was 1.028 and 1.207 and 1.088 and 1.041 and 1.129. The NPo/NPobasal ([2]; 10 µM PROG, min 7, single records) was 0.8935 and 1.1318 and 1.162 and 1.118 and 1.064, the NPo/NPobasal ([2]; 10 µM PROG, min 8, single records) was 1.148 and 1.63 and 1.096 and 1.061 and 1.045 and the NPo/NPobasal ([2]; 10 µM PROG, min 10, single records) was 1.394 and 1.416 and 1.11 and 0.7114 and 1.049. For the same compound, the “maximal activity (NPo/NPobasal)” value ([2]; 10 µM PROG, single records (Fig 1I)) was 1.053 and 1.066 and 1.023 and 1.182 and 1.11 and the “action on channel activity (NPo)” value ([2]; 10 μM, up to 10 min) was “consistently failed to activate the homomeric channels”.
